Data on one molecule can be found in patent US10596145B2, “Heterocyclic flavone derivatives, compositions, and methods related thereto” (Emory University, priority 2012, dated 2020).

Data set [1] in a line: Human liver microsomal stability assay. The class given is in vitro ADME. As to conditions: human liver microsomes, 1 h incubation. From the text:
To explore these compounds' in vitro ADMET profiles, we conducted numerous in vitro assays.
A general note: Liver microsomes are a subcellular fraction often used to study metabolism.

Data set [2] concerns the target T1, TrkB (Rattus norvegicus, UniProt Q63604).
T1 construct: endogenous in cells; host or cells: primary cortical neurons from E17 rat embryos
Kind of data set: TrkB activation in primary cortical neurons (immunoblotting). The data set is classed as cell-based. As to conditions: 500 nM, 15 min. On the procedure:
Primary cortical cultures from E17 rat embryos were treated with 500 nM of various synthetic flavone derivatives for 15 min. The cell lysates (20 μg) were analyzed by the immunoblotting.
Rat primary neurons were treated with 500 nM various indicated compounds from 15 min. The neuronal lysates ([…]) were analyzed with various antibodies.
500 nM of different synthetic compounds were added to DIV 7 neurons for 15 min. The cell lysates were analyzed by immunoblotting with indicated p-Akt 473 antibodies.
Replacing the 3′-dimethylamino group or 4′-morpholino group was tested for TrkB agonistic activity. To compare the TrkB activation by these compounds, primary cortical cultures were prepared and treated them with 500 nM of various compounds for 15 min and collected the cell lysates. […] The p-Akt ELISA analysis results were similar to the TrkB activation pattern (FIG. 2B, lower panel).

For data set [3], the target named is T2, CYP1A2 (Homo sapiens, UniProt P05177).
T2 sequence (P05177 1-516): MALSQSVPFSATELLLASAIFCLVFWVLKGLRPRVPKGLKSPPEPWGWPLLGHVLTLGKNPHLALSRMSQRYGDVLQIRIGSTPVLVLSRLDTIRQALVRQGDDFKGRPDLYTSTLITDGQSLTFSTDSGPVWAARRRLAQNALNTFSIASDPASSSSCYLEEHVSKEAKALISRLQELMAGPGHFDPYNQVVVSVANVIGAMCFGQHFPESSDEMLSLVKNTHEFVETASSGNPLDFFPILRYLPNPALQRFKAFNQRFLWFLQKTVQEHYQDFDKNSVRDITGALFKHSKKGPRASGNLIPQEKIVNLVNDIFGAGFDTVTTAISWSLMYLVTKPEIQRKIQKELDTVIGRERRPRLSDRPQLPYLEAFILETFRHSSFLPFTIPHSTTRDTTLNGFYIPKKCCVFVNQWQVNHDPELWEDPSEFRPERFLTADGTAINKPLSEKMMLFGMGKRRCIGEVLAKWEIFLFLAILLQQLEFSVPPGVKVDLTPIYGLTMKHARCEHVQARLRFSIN
Nature of the data set: CYP screen inhibition. The data set is classed as in vitro ADME. On the procedure:
(§1) At 30 μM, the inhibition patterns contained similar trends. To test the possible cardiovascular toxicity, hERG inhibition triggered by compound o was examined.

A short description of data set [4]: In vivo pharmacokinetic studies in mice. Also on record: species or system mouse. Particulars: in vivo. On the procedure: For compound a, the standard dosage of 1 mg/kg via i.v. injection and 5 mg/kg for P.O. route was employed. […] Presumably, the dosage is too low for the in vivo PK assay. Thus, the doses of the tested compound o were increased. […] Moreover, the bioavailability is around 2% for compound o at a 10 mg/kg dosage.
Twenty to thirty grams mice within the age of 6-8 weeks old were administrated with the indicated compounds i. v. or orally. At different time points (3, 10, 30, 60, 120, 240, 360 and 480 min), blood aliquots (300-400 μl) were collected in tubes coated with lithium heparin, mixed gently, then kept on ice and centrifuged at 2500×g for 15 min at 4° C., within 1 h of collection. The plasma was then harvested and kept frozen at −20° C. until further processing. For each time point, 3 mice/group were employed. The plasma samples were analyzed by HPLC.

Data set [5] concerns C57BL/6J mice. Kind of data set: Tail suspension test. The data set is classed as in vivo, mouse. Particulars: 2.5 mg/kg oral, 21 days. On the procedure:
The drug-treated mice were subjected tail suspension assay. […] Data are presented as mean±SEM.
One suspends mice by the tail to a horizontal ring stand bar 30 cm above the floor using adhesive tape for 6 minutes and videotaped. Latency to immobility and time spent immobile will be scored for each mouse. Following the test, mice will be returned to their home cage. Immobility scores were compared by unpaired t test.

The target of data set [6] is T3, TrkB (Mus musculus, UniProt P15209).
T3 construct: from tissue; host or cells: mouse brain (hippocampus, cortex), C57BL/6
Nature of the data set: TrkB phosphorylation in mouse brain after oral administration (immunoblotting, immunohistochemistry). The class given is in vivo. On the procedure: One mg/kg of various indicated compounds were orally administrated into C57 BL/6J mice and TrkB phosphorylation and its downstream signaling cascades including Akt and MAPK in the hippocampus of mouse brain were analyzed by immunoblotting at 4 h. […] The downstream p-Akt and p-MAPK activity coupled to the TrkB activation patterns.
Time course assay with 4′-dimethylamino-7,8-imidazole flavone. One mg/kg of compound (i) and compound (m) were orally administrated into C57 BL/6J mice and TrkB phosphorylation and its downstream signaling cascades including Akt in mouse brain were analyzed by immunoblotting at various time points. TrkB activation by compound m peaked at 4 h, whereas the maximal TrkB activation by compound i in mouse brain occurred at 1-2 h. Arrows indicate the p-TrkB in mature glycosylated or unglycosylated forms (top panels). The downstream Akt activation pattern tightly correlated with the upstream TrkB activation.
Male C57BL/6 mice aged of two months were administrated orally with 4′-DMA-7,8-DHF derivatives at a single dose of 1 mg/kg for 4 h. The control mice were injected with saline. The mice were sacrificed and brains were homogenated and ultracentrafuged. The supernatant (40 μg) was employed for SDS-PAGE and immunoblotting analysis with indicated antibodies, respectively. Male C57BL/6 mice aged of two months were administrated orally with compound (i) or (m) at the dose of 5 mg/kg/day each and compound o or p at the dose of 2.5 mg/kg/day each for 21 days. BrdU (100 mg/kg) was i. p. injected two hours before the TrkB agonist treated animals were sacrificed and the hippocampal section lysates were analyzed by immunoblotting with p-TrkB and total TrkB antibodies, p-AKT ELISA.
Brain tissues were fixed in 4% paraformaldehyde overnight followed by paraffin embedding. Sections of 6 μm were cut. For immunohistochemical staining, brain sections were deparaffinized in xylene and rehydrated in graded alcohols. Endogenous peroxidase activity was blocked by 3% hydrogen peroxide for 5 min and all slides were boiled in 10 mM sodium citrate buffer (pH 6.0) for 10 min. Phosphorylated TrkB 816 and TrkB were detected using specific antibodies. Paraffin section were deparaffinized in xylene and rehydrated gradient ethanol solution. Samples were boiled in 10 mM sodium citrate buffer for 20 min for antigen retrieval purpose. Brain sections were incubated with anti-TrkB (BD Biosciences, San Jose, Calif.) 1:50, p-TrkB 1:300 dilution. Secondary antibody was applied using anti-rabbit-Alexa 594 (red), anti-mouse-fluorescein isothiocyanate (FITC) (green). DAPI (blue) was used for nuclear staining.
For orientation: A western blot detects proteins with antibodies after separation by electrophoresis.

Data set [7] concerns the target hERG (Homo sapiens, UniProt Q12809). Kind of data set: hERG inhibition assay. On the procedure: as §1

Molecules are shown by their SMILES. Entries after “also recorded” stand apart in the source; their conditions may differ.

T3 sequence (P15209 32-821): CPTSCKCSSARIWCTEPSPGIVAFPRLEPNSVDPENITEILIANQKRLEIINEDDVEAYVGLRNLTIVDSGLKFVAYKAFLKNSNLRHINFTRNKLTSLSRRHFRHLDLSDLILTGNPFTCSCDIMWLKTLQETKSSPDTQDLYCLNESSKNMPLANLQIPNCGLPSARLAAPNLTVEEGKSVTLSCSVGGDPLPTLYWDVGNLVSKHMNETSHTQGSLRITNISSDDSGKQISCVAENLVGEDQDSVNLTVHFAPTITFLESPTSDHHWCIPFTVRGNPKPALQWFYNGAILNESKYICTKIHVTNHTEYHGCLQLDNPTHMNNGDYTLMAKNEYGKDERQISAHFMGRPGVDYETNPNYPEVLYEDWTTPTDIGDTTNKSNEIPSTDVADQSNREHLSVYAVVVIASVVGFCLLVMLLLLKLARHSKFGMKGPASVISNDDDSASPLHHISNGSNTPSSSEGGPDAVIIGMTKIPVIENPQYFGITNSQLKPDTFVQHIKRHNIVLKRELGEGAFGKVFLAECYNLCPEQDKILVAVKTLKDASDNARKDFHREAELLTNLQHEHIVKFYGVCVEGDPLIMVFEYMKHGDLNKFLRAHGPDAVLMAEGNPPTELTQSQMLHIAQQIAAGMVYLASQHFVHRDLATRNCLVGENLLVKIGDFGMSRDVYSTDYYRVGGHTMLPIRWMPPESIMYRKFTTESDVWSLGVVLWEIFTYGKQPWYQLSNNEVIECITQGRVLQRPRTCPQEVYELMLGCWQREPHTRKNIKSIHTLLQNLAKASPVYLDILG
T1 sequence (Q63604 32-821): as the sequence (P15209 32-821) above, with T3M, S9T, A10T, V32I, R63K, S84G, M153T, L185I, S394T, S770N counted along it
Sequence of hERG (Q12809 whole entry): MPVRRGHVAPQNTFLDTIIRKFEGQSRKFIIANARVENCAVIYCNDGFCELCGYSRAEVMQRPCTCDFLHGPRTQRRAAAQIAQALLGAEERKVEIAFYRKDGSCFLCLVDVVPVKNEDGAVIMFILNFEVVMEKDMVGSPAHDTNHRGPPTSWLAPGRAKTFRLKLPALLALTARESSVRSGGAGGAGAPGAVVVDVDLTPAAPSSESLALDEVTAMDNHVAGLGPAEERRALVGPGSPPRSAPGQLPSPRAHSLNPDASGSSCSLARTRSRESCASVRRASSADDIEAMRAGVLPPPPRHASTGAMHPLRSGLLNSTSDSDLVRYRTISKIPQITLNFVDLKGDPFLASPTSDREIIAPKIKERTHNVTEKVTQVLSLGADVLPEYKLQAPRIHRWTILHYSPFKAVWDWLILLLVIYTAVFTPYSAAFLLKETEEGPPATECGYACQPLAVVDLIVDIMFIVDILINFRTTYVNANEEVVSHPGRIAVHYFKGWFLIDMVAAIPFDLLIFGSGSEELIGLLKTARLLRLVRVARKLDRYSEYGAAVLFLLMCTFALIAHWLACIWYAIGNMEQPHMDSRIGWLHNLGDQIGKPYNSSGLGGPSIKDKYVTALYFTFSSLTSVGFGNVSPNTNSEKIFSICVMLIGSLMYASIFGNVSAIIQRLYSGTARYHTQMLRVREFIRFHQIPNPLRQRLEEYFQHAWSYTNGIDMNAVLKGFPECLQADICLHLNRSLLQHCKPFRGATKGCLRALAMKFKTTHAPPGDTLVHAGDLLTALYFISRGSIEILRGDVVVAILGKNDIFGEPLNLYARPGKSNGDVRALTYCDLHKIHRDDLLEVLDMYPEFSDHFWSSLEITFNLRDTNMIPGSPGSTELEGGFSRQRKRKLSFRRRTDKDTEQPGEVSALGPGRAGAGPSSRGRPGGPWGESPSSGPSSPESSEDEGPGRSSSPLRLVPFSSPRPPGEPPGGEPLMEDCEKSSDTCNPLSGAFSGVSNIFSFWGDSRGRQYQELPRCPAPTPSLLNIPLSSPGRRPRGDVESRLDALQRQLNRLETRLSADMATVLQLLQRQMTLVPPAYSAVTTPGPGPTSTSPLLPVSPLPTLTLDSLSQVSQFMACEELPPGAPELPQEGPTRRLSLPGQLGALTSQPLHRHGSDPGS

One may read the inhibition as the share of the control response that was lost under treatment. Usually half-life stands for how long it takes for the measured level to halve. High values mean slow loss, low ones fast loss. The AUC(0-t) is exposure summed from dosing to a finite time, without extrapolation to infinity. A high value points to high exposure. Broadly, the bioavailability is dose-corrected exposure relative to a reference, in per cent. For `Cc1nc2ccc3c(=O)cc(-c4ccc(N5CCCC5)cc4)oc3c2[nH]1` [compound o, 2-methyl-8-(4-(pyrrolidin-1-yl)phenyl)chromeno[7,8-d]imidazol-6(1H)-one], in data set [1], the “remaining unchanged after incubation” value is on record as 25.4%. The “TrkB activation (p-TrkB immunoblotting)” value in data set [2] is “higher agonistic activity than compound m”; in data set [2] (listed as 4′-pyrrolidino-7,8-methyl-imidazole-flavone), “triggers TrkB activation in primary neurons”. Also, the inhibition at 3 µM in data set [3] was approximately 27.3%. In data set [4] (C57BL/6, mouse, 3 mg/kg), this molecule had a half-life of approximately 1.72 h. The same molecule gave an oral bioavailability in data set [4] (C57BL/6, mouse, po, 10 mg/kg) of 2%. Further, the AUC(0-t) in data set [4] (mouse, 3 mg/kg) was approximately 312 ng·h/mL. For the same molecule, in data set [4] (mouse, po, 10 mg/kg), the bioavailability is approximately 2%. For the same molecule, the “immobility in tail suspension test” value in data set [5] is “active in both FST and TST depression behavioral assays; also recorded: significantly reduced the immobility versus vehicle control”. Further, in data set [6] (1 mg/kg oral, hippocampus, at 2 h), the “TrkB activation in mouse brain” value is reported as “triggers TrkB activation in mouse brain”. The “TrkB phosphorylation after chronic treatment (immunoblotting)” value in data set [6] (2.5 mg/kg/day oral, 21 days) is “markedly activated TrkB receptor; also recorded: evidently elevated TrkB phosphorylation”. In addition, the “TrkB phosphorylation in hippocampus (immunohistochemistry, anti-p-TrkB 816)” value in data set [6] (2.5 mg/kg/day oral, chronic) was “elevated TrkB phosphorylation in hippocampus”. In addition, the hERG inhibition result in data set [7] was “suboptimal; also recorded: did not possess any concentration-dependent inhibition activity of hERG”.
